Assay results published in patent US20100297047A1, “ESTERS OF GLYCEROL AND THEIR USES IN COSMETIC AND PHARMACEUTICAL APPLICATIONS” (BIOPHIL ITALIA S.P.A., priority 2007, published 2010).

Test: Solubilisation of poorly soluble active ingredients in the Olea europea triglycerides/diglycerides mixture
Format: physicochemical
Description: Improved formulations have been prepared by solubilising lipophilic ingredients, which are known for their interesting cosmetic activity but also for their difficult usage due to their poor solubility and/or dispersion into common cosmetic matrixes.
Ceramides are major components (roughly 40%) of the lipidic layers of the epidermis barrier, which drive the balance between hydration and loss of water, having the important role of “cement” between the corneocytes, i.e. the brick cells forming the dermal layers. The high difficulty for the application of ceramides in cosmetics is their poor solubility: in order to solubilise them into esters, a heating step above 90° C. is normally required with possible damage of the ceramides.
The use of triglycerides/diglycerides mixture as a solubiliser has allowed the solubilisation of ceramide-3 also at high concentration (up to 50%) without excessive and long time heating steps, A liquid ingredient, easy to use by simple addition into the lipid phase of the cosmetic formulation, has been obtained so far.
Sericin is one of the two families of proteins constituting the pure silk secreted by the silkworm glands: its dimensions vary from 60 up to 500 kDa. […]

CCCCCCCCCCCCCCCCCC(=O)N[C@@H](CO)[C@H](O)[C@H](O)CCCCCCCCCCCCCC [ceramide-3]
concentration at which ceramide-3 is solubilised (triglycerides/diglycerides mixture as solubiliser, without excessive and long time heating steps): up to 50%

sericin
dissolution of high molecular weight sericin (in mixtures of triglycerides/diglycerides from olive, compared with other commonly used vehicles or solubilisers): successfully dissolved
